The values that follow come from patent US6495594B2, “Biologically active analogs of discodermolide” (Harbor Branch Oceanographic Institution, Inc., priority 2000, dated 2002).

“Also recorded” adds a separate entry of the source.

Series [1] concerns A549 human adenocarcinoma tumor cells. Put plainly: Microtubule bundling patterns in tumor cells by immunofluorescence. In kind it is cell-based. Further details: key to Microtubule bundling in A549 cells: −: no effect; +/−: minimal or questionable effect; +: weak effect; ++: strong effect; +++: very strong effect equivalent to discodermolide. The settings on record: for Microtubule bundling in A549 cells: subjective rating versus discodermolide, Table 12. As to the method:
Discodermolide and discodermolide analogs were evaluated as to their effects on the morphology of the microtubule network of cells using mouse anti-alpha-tubulin monoclonal antibody.
On day one, 7×10^4 adherent A549 human adenocarcinoma tumor cells were cultured in TCM overnight at 37° C. in 5% CO2 on 22 mm^2 cover slips in 6-well microtiter plates. On day two, TCM was removed and replaced with 10-1000 nM discodermolide or analog in TCM or TCM without drug (control) and incubated overnight at 37° C. in 5% CO2. On day three, TCM was removed and cells attached to cover slips were fixed with a 3.7% formaldehyde solution in Dulbecco's PBS for 10 minutes at room temperature. Cells were permeabilized with a 2% Triton X-100 solution, 2 mL per well, for 5 minutes at room temperature and washed twice in Dulbecco's PBS prior to staining.
To each well containing cells attached to cover slips a 2 mL volume of mouse anti- alpha-tubulin monoclonal antibody (Cat# T-5168, Sigma Chemical Co., St. Louis, Mo.) diluted 1:1000 in Dulbecco's phosphate buffered saline (D-PBS) was added and the cells incubated at room temperature for 45 minutes. Cover slips were rinsed once with D-PBS. A 2 mL volume of goat-anti-mouse-IgG-FITC conjugated antibody (Cat# T-5262, Sigma Chemical Co., St. Louis, Mo.) diluted 1:1000 in D-PBS was added and the cells incubated at room temperature for 45 minutes. Cover slips were rinsed once in D-PBS and DNA was stained with 0.02 mg/mL propidium iodide together with 0.1 mg/mL of ribonuclease A (RNAse) A in D-PBS at 37° C. for 30 minutes. Cover slips were rinsed three times with sterile distilled water, air-dried and mounted on slides with SlowFade™ antifade solution (Molecular Probes, Eugene, Oreg.) and observed under the microscope using epifluorescence illumination for the presence of abnormal aster and microtubule bundle formations.

Series [2] has as its system P388 murine leukemia cell lines. Put plainly: In vitro proliferation of P388 cells (MTT). The settings on record: 48-h exposure; for IC50: value in parentheses. In kind it is cell-based. Here is the method: Discodermolide and discodermolide analogs were analyzed as to their effects on proliferation of A549 human adenocarcinoma and P388 murine leukemia cell lines. P388 cells were obtained from Dr. R. Camalier, National Cancer Institute, Bethesda, MD, and A549 cells were obtained from American Type Culture Collection, Rockville, MD. All cell lines were maintained in tissue culture medium (TCM; Roswell Park Memorial Institute RPMI 1640 supplemented with 100 U/mL penicillin, […], 60 […], 18 mM HEPES, 0.05 mg/mL gentamicin (Life Technologies, Gaithersburg, MD) and 10% fetal bovine serum) and cultured in plastic tissue culture flasks at 37° C. in humidified air containing 5% CO2. Stock cultures of P388 cells were subcultured 1:20 in fresh TCM every 2 to 3 days. Stock cultures of A549 cells were subcultured 1:10 every 3 to 4 days. To assess the antiproliferative effects of agents against the cells, 200 μL cultures (96-well tissue culture plates, Nunc, Denmark) were established at 1 ×10^5 cells/mL in TCM or TCM containing the test agent at 0.03-5.0 μg/mL. After 48-h exposures, P388 cells were enumerated using 3-[4,5-dimethylthiazol-2-yl]-2,5-diphenyltetrazolium bromide (MTT) as described in the literature (M. C. Alley, et al., Cancer Res. 48:589, 1988). A549 cells were enumerated in the same manner after 72 hours exposure. The results were expressed as percent inhibition compared to the negative (no drug) control. Positive drug controls of varying dilutions of 5-fluorouracil and adriamycin (Sigma Chemical Co., St Louis, MO) were included to monitor drug sensitivity of the cell line.
To quantitate the effects on cell proliferation and resulting IC50 values, 75 μL of warm growth media containing 5 mg/mL MTT is added to each well, cultures returned to the incubator, and left undisturbed for 3 hours. To spectrophotometrically quantitate formation of reduced formazan, plates are centrifuged (500×g, 10 minutes), culture fluids removed by aspiration, and 200 μL of acidified isopropanol (2 mL concentrated HCl /liter isopropanol) added per well. The absorbance of the resulting solutions is measured in a plate reader (TECAN Spectra SLT; TECAN U.S., Research Triangle Park, N.C.) at 570 nm and a 650 nm reference filter. The absorbance of test wells is divided by the absorbance of drug-free wells, and the concentration of agent that results in 50% of the absorbance of untreated cultures (IC50) is determined by linear regression of logit-transformed data (D. J. Finney, Statistical Method in Biological Assay, third ed., pp. 316-348, Charles Griffin Co., London, 1978). A linear relationship between tumor cell number and formazan production has been routinely observed over the range of cell densities observed in these experiments. The two standard drug controls (indicated above) are included in each assay as a check to monitor the drug sensitivity of each of the cell lines and IC50 values are determined for each drug-cell combination.

The test system of a further series is A549 human lung cells. Put plainly: Cell cycle progression by flow cytometry. The settings on record: for Cell cycle effects (100 nM): 24 hr, A549. In kind it is cell-based. Here is the method:
Cell cycle studies were initiated in order to pinpoint a specific phase within the cell cycle in which discodermolide analogs were exerting their antiproliferative effect. A549 human lung cells were used as cell cycle targets to compare the effects of discodermolide and discodermolide analogs on perturbation of the cell cycle. Cell cycle analyses were performed as follows: A549 cells were incubated at 37° C. in 5% CO2 in air in the presence or absence of varying concentrations of discodermolide or discodermolide analogs for 24 hr. Cells were harvested, fixed in ethanol, washed, and stained with 0.02 mg/mL of propidium iodide (P.I.) together with 0.1 mg/mL of RNAse A. Stained preparations were analyzed on a Coulter EPICS ELITE flow cytometer with 488 nm excitation. Fluorescence measurements and resulting DNA histograms were collected from at least 10,000 P.I. stained cells at an emission wavelength of 690 nm. Raw histogram data was further analyzed using a cell cycle analysis program (Multicycle, Phoenix Flow Systems).

The conditions of series [3]: see U.S. Pat. No. 6,127,406; cited from earlier work.

`C=CC=CC(C)C(OC(N)=O)C(C)C(O)C(C)CC(C)=CC(C)C(O)C(C)C=CC(CC1OC(=O)C(C)=CC1C)OC(=O)CCC(=O)O` (stereo not shown) [3-deoxy-2Δ-discodermolide-7-succinate]: the Microtubule bundling observation entry was “indistinguishable from that of the untreated (control) cells” in series [1] (10 nM), “indistinguishable from that of the untreated (control) cells” in series [1] (100 nM) and “no bundling” in series [1] (1000 nM). For the same molecule, the “Microtubule bundling in A549 cells” value in series [1] is “−”. In addition, in series [2], the “IC50 P388 cells” value was greater than 5 µg/mL. Besides, the IC50 in series [2] is greater than 7.41 µM. The Cell cycle effects result is “indistinguishable from the untreated (control) cells” with A549 human lung cells (10 nM); “indistinguishable from the untreated (control) cells” in the series on A549 human lung cells (1000 nM); “no cell cycle effects were noted; also recorded: slight induction of apoptosis and a general necrosis” in the series with A549 human lung cells (3000 nM (highest concentration tested)). The “Cell cycle effects (100 nM)” value in the series on A549 human lung cells was “indistinguishable from the untreated (control) cells”.
Turning to `CCCCC(C)C(OC(N)=O)C(C)C(OC(C)=O)C(C)CC(C)=CC(C)C(OC(C)=O)C(C)CCCCC1OC(=O)C(C)C(OC(C)=O)C1C` (stereo not shown) [7-deoxy-8,21,23-hexahydrodiscodermolide-3,11,17-triacetate], the Microtubule bundling observation result in series [1] (10 nM through 1000 nM) is on record as “no bundling seen”. In addition, the “Microtubule bundling in A549 cells” value in series [1] is reported as “−”. In addition, the “IC50 P388 cells” value in series [2] is greater than 5 µg/mL. The concentration for half-maximal inhibition (IC50) in series [2] was greater than 7.5 µM. For the same molecule, the Cell cycle effects entry in the series with A549 human lung cells (10 nM) and in the series on A549 human lung cells (1000 nM) was “No cell cycle effects were noted” in each case. Further, in the series on A549 human lung cells, the “Cell cycle effects (100 nM)” value was “No cell cycle effects were noted”.
Turning to `C=CC=CC(C)C(OC(N)=O)C(C)C(OC(C)=O)C(C)CC(C)=CC(C)C(OC(C)=O)C(C)C=CC(CC1OC(=O)C(C)C(OC(C)=O)C1C)OC(C)=O` (stereo not shown) [discodermolide-3,7,11,17-tetraacetate], in series [3], the “Cytotoxicity compared to the parent molecule” value is given as “dramatic reduction in the activity”.
Turning to `C=CC=CC(C)C(OC(N)=O)C(C)C(O)C(C)CC(C)=CC(C)C(OC(C)=O)C(C)C=CC(CC1OC(=O)C(C)C(OC(C)=O)C1C)OC(C)=O` (stereo not shown) [discodermolide-3,7,11-triacetate], the “Cytotoxicity compared to the parent molecule” value in series [3] is “reduced cytotoxicity”.
For the molecule `C=CC=CC(C)C(OC(N)=O)C(C)C(OC(C)=O)C(C)CC(C)=CC(C)C(O)C(C)C=CC(CC1OC(=O)C(C)C(OC(C)=O)C1C)OC(C)=O` (stereo not shown) [discodermolide-3,7,17-triacetate], the “Cytotoxicity compared to the parent molecule” value in series [3] is reported as “dramatic reduction in the activity”.
`C=CC=CC(C)C(OC(N)=O)C(C)C(O)C(C)CC(C)=CC(C)C(O)C(C)C=CC(CC1OC(=O)C(C)C(OC(C)=O)C1C)OC(C)=O` (stereo not shown) [discodermolide-3,7-diacetate]: the “Cytotoxicity compared to the parent molecule” value in series [3] was “greater cytotoxicity”.
`C=CC=CC(C)C(OC(N)=O)C(C)C(O)C(C)CC(C)=CC(C)C(OC(C)=O)C(C)C=CC(O)CC1OC(=O)C(C)C(OC(C)=O)C1C` (stereo not shown) [discodermolide-3,11-diacetate]: in series [3], the “Cytotoxicity compared to the parent molecule” value is “reduced cytotoxicity”.
With `C=CC=CC(C)C(OC(N)=O)C(C)C(OC(C)=O)C(C)CC(C)=CC(C)C(O)C(C)C=CC(O)CC1OC(=O)C(C)C(OC(C)=O)C1C` (stereo not shown) [discodermolide-3,17-diacetate], in series [3], the “Cytotoxicity compared to the parent molecule” value is “dramatic reduction in the activity”.
As for `C=CC=CC(C)C(OC(N)=O)C(C)C(O)C(C)CC(C)=CC(C)C(O)C(C)C=CC(O)CC1OC(=O)C(C)C(OC(C)=O)C1C` (stereo not shown) [discodermolide-3-acetate], the “Cytotoxicity compared to the parent molecule” value in series [3] was “greater cytotoxicity”.
`C=CC=CC(C)C(OC(N)=O)C(C)C(O)C(C)CC(C)=CC(C)C(O)C(C)C=CC(CC1OC(=O)C(C)C(O)C1C)OC(C)=O` (stereo not shown) [discodermolide-7-acetate]: the “Cytotoxicity compared to the parent molecule” value in series [3] is listed as “greater cytotoxicity”.
